In patent US7615361B2, “Toxicity screening methods” (Ceetox, Inc., priority 2006, dated 2009):
Read-outs that look alike come from different tables or passages of the source.

Assays:
human hepatocytes = experiment: Membrane lipid peroxidation (8-isoprostane ELISA); conditions: 24 HR
Procedure: (§1) Lipid Peroxidation Measured as 8-Isoprostane (8-ISO): 8-ISO levels were determined using an ELISA. 8-ISO is a member of a family of eicosanoids produced non-enzymatically by random oxidation of tissue phospholipids by oxygen radicals. Therefore, an increase in 8-ISO is an indirect measure of increased lipid peroxidation (Vacchiano and Tempel, 1994). At the end of the exposure period, plates were either analyzed immediately or stored at −80° C. until needed for analysis. Color development, which is […] to the amount of 8-ISO present in the sample, was read on a Packard Fusion or equivalent plate reader at 415 nm.
(§2) Lipid Peroxidation Measured as 8-Isoprostane (8-ISO): Background absorbance produced from Ellman's reagent is subtracted from all wells. Non-specific binding is subtracted from the maximum binding wells to give a corrected maximum binding expressed as Bo. The percent of bound (B) relative to maximum binding capacity (Bo) for all unknown samples and for standards was determined an expressed as (% B/Bo). The % B/Bo for standards was plotted against the log of 8-ISO added to yield the final standard curve. This curve was used to convert % B/Bo to pg 8-ISO/mL of sample.
(§3) The test compound consisted of two parts mixed in a constant ratio of 5:1. The final test mixture consisted of Test mix 1 and Test mix 2, which were received as frozen solutions. The test mixture was tested in a ratio of 5:1 COMP A in five different cell types which included the following: SK-MEL28, human hepatocytes, HUVEC, C32, and NHEM cells. Cells were seeded into 96-well plates and cultured in medium containing 10% bovine serum. Following an equilibration period of 48 hr, the cells were treated with the test compound mix at concentrations of COMP A (μg/mL)=(250:50), (125:25), (25:12.5), (12.5:2.5), (2.5:1.25), (1.25:0.25), and (0.25:0.05) for 24 hr (overnight) at 37° C. in 5% CO2. […] Following an equilibration period of 4 hr, the cells were treated with the test compound mix at concentrations of COMP A (μg/mL)=(250:50), (125:25), (25:12.5), (12.5:2.5), (2.5:1.25), (1.25:0.25), and (0.25:0.05) for 24 hr (overnight) at 37° C. in 5% CO2.
(§4) Experimental Protocol: The test compounds were shipped on dry ice for testing. The compounds were stored frozen at −80° C. until needed. Dosing solutions were prepared in complete culture medium. SK-MEL28, human hepatocytes, HUVEC, C32, and NHEM cells were used as the test systems. Cells were seeded into 96-well plates and allowed to equilibrate for approximately 48 hr. Following the equilibration period the cells were exposed to the test compound mix at concentrations of COMP A (μg/mL)=(250:50), (125:25), (25:12.5), (12.5:2.5), (2.5:1.25), (1.25:0.25), and (0.25:0.05). Solubility was determined by Nephalometry techniques immediately after dosing and prior to harvesting the cells at 24 hr. Following the exposure period, the cells or their supernatant (culture medium) were analyzed for changes in cell proliferation, membrane leakage, mitochondrial function, oxidative stress, and apoptosis. The resultant exposure concentration response curves were graphed and analyzed for determining the concentration that produced a half maximal response or TC50.

HUVEC = experiment: Membrane lipid peroxidation (8-isoprostane ELISA); conditions: 24 HR
Procedure: as §1, §2, §3, §4

C32 cells = experiment: Membrane lipid peroxidation (8-isoprostane ELISA); conditions: C32, 24 HR
Procedure: as §1, §2, §3, §4

NHEM cells = experiment: Membrane lipid peroxidation (8-isoprostane ELISA); conditions: 24 HR
Procedure: as §1, §2, §3, §4

MTT reduction = assay type: cell-based; conditions: rat, NRK cells, read-out: MTT TC50
From the text: Tetrazolium Dye Reduction: 3-[4,5-dimethylthiazol-2-yl]
The third experiment was done to evaluate the specificity and selectivity of the test compound in another non-tumor cell that was derived from normal rat kidney tissue. In this experiment the test compound has no effect on cell number of acute cell death up to the 500 dilution after 6 and 24 hr of exposure (FIG. 76C and 77C). Significant effects were observed on mitochondrial markers at dilutions that dropped pH to 3.7. The bar graph in FIG. 82 summarizes these effects. […] In contrast the rat tumor cell line was sensitive to the test compound and cell death occurred at the 500 dilution and could not be attributed to low pH.

BrdU incorporation = assay type: cell-based, human; conditions: human, run #2, read-out: BrdU TC50; for CC50 at 24 h: SK-MEL28, 24 HR; for CC50 at 72 h: SK-MEL28, 72 HR
Procedure: Bromodexoyurine (BrDU) Incorporation: This assay was used to monitor cumulative changes in DNA replication. The assay uses the thymidine analog BrdU to measure S-phase of cell replication and is considered to be the Gold Standard for cell proliferation. BrDU (10 μM) was included in the test compound dosing solution to allow BrDU incorporation during cell replication. BrDU was included for the duration of the exposure, 24 hr. After completion of exposure period, the cells were fixed and labeled with mouse monoclonal anti-BrDU (FITC). Fluorescence was measured using a Packard Fusion or equivalent plate reader at 485 nm excitation and 530 nm emission.
Bromodexoyurine (BrDU) Incorporation: After incubation, the test compound/BrDU solution was removed and cells were fixed. A solution containing mouse monoclonal anti-BrDU (FITC) was added and fluorescence was measured. Data were collected as relative fluorescent units (RFU). The blank was subtracted from the final well RFU. It represents the average of the first and last columns which contain no cells on that particular plate. The controls are untreated cells allowed to grow on the same plate. The compounds are represented by several separate RFU data points for each of the tested concentrations. The percent change relative to controls was calculated by dividing the average RFU by the control cell RFU and multiplying by 100.
Experiments were also conducted to verify the relationship between exposure time and the observed cytostatic effects of the test compound. An additional assay was used to monitor cumulative change in DNA replication. The assay uses the thymidine analog BrdU to measure S-phase of cell replication and is considered to be the Gold Standard for cell proliferation. […] The BrdU assay paralleled the MTT and propidium iodide assays. The apparent lower sensitivity of the BrdU assay is a reflection of the experimental design not the assay. BrdU data represents a cumulative effect from the beginning of exposure while the other assays are measuring one is remaining at the end of either the 24 hr or 72 hr exposure period. […] There was a trend toward increasing activity in caspase-3, a marker for cell apoptosis.

SMILES: C=C(C)[C@H]1Cc2c(ccc3c2O[C@@H]2COc4cc(OC)c(OC)cc4[C@@H]2C3=O)O1 [ROTENONE, Rotenone]
- Membrane Lipid Peroxidation (human hepatocytes): 0
- Membrane Lipid Peroxidation (HUVEC): 1 (1 = Modest increase with maximum values ≦15 pg/mL)
- Membrane Lipid Peroxidation (C32 cells): 0
- Membrane Lipid Peroxidation (NHEM cells): 2 (2 = Concentration related increase with maximum values ≧15 pg/mL)
- CC50 at 6 h (MTT reduction): 10 µM
- CC50 at 24 h (MTT reduction): 10 µM
- CC50 at 24 h (BrdU incorporation): 9 µM
- CC50 at 72 h (BrdU incorporation): 44 µM

SMILES: CC[C@@]1(O)C(=O)OCc2c1cc1n(c2=O)Cc2cc3ccccc3nc2-1 [CAMPTOTHECIN, Camptothecin]
- Membrane Lipid Peroxidation (human hepatocytes): 1 (1 = Modest increase with maximum values ≦15 pg/mL)
- Membrane Lipid Peroxidation (HUVEC): 2 (2 = Concentration related increase with maximum values ≧15 pg/mL)
- Membrane Lipid Peroxidation (C32 cells): 0
- Membrane Lipid Peroxidation (NHEM cells): 1 (1 = Modest increase with maximum values ≦15 pg/mL)
- CC50 at 6 h (MTT reduction): 300 µM
- CC50 at 24 h (MTT reduction): 100 µM
- CC50 at 24 h (BrdU incorporation; SK-MEL28 cells): 0.1 µM
- CC50 at 72 h (BrdU incorporation; SK-MEL28 cells): 0.2 µM
